Results on 19 compounds are retold here after patent US20250188059A1, “NOVEL COMPOUND AND USE THEREOF FOR INHIBITING CHECKPOINT KINASE 2” (ARUM THERAPEUTICS INC, priority 2022, published 2025).

As usually defined, the IC50 is the concentration needed to halve the response being measured.

Like-named read-outs stand apart in the source and are kept apart here.

Test [1] concerns human breast cancer cell line MCF-7. Nature of the test: Cancer cell growth inhibition test (CellTiter-Glo). The format is cell-based. The conditions noted are these: MCF-7, 72 hours. Here is the method: The human breast cancer cell line MCF-7 was treated with trypsin and harvested. The number of cells was counted, and about 3000 cells/80 μl per well were inoculated into a 96 well plate (Corning) and then incubated in a 37° C. incubator for 24 hours. Thereafter, the example compounds were diluted in a culture solution at various concentrations, and each well was treated with 20 μl and stored in a cell culture incubator for 72 hours. In the case of the group administered in combination, the example compounds and cisplatin or doxorubicin were diluted in a culture solution at various concentrations, and each well was treated with 20 μl. After 72 hours, each well was treated with 30 μl of CellTiter-Glo solution (Promega), and the luminescence was read on a Victor3 multi label reader (PerkinElmer).
Relative viability (%)=(value of each test well/value of well treated with DMSO alone)×100
The results obtained for each concentration for each example compound were the average values obtained from three wells, and PRIZM software was used for analysis of the results.

Test [2] concerns the target Chk1 kinase (Homo sapiens (Human), UniProt O14757). Nature of the test: Chk1 kinase inhibitory activity (LanthaScreen TR-FRET). The format is biochemical. The conditions noted are these: graded. Here is the method:
(§1) The compounds of Examples 1 to 66 were diluted at various concentrations and transferred to a 384-well plate by 5 μl, and 10 μl of a mixed solution (2×) of Chk1 kinase (Thermo, P3040) or Chk2 kinase (Thermo, PV3367) and a substrate (Thermo, PV3508) was added to wells treated with the compounds. 5 μl of an ATP solution at a 4× concentration was added to the test well and reacted at room temperature for 1 hour. 20 μl of LanthaScreen Terbium-CREB p-Ser 133 antibody (Thermo, PV3542) was added to the reaction well and incubated at room temperature for 30 minutes. Conversion data was measured by an EnVision 2014 multi label reader (PerkinElmer). The activity for each concentration was determined by the ratio (FRET ratio=FR) of the value obtained by dividing the value at 520 nm by the value at 490 nm among the emission wavelength values for each wavelength (Em520/Em490). The results obtained for each concentration of the compounds were the average values obtained in two wells, and the IC50 values of the compounds were calculated using PRIZM software for analysis of the results. IC50 in Table 7 was graded as follows.
On the technique in general: TR-FRET usually uses a lanthanide donor and a delayed reading to cut background.

The target of test [3] is Chk2 kinase (Homo sapiens (Human), UniProt O96017). The test is described as follows: Chk2 kinase inhibitory activity (LanthaScreen TR-FRET). In kind it is biochemical. The conditions noted are these: graded. Here is the method:
as §1

[4] abbreviates: Homo sapiens, MCF7, 72 h, graded, read-out: Celltiter glo analysis (IC50).
Setting [5] is: graded, read-out: Celltiter glo analysis (IC50).
[6] abbreviates: Homo sapiens, MCF7, 72 h, alone, read-out: Administered alone (IC50).
[7] abbreviates: combination with cisplatin, read-out: Administered in combination with cisplatin (IC50).
Where [8] appears, read: combination with doxorubicin, read-out: Administered in combination with doxorubicin (IC50).

Chain of Chk1 kinase (O14757 whole entry): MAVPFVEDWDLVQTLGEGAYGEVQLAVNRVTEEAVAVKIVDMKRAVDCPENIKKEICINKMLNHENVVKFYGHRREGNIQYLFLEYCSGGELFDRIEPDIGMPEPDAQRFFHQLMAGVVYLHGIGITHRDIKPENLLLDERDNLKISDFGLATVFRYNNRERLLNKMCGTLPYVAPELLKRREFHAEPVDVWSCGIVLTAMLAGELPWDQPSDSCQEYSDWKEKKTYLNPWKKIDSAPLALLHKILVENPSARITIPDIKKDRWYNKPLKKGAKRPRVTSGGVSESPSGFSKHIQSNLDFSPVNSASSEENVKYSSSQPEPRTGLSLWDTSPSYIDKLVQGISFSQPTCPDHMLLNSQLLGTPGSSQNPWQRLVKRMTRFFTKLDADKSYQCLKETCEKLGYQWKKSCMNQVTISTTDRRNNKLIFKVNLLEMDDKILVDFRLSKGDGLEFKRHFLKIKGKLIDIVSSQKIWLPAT
Chain of Chk2 kinase (O96017 whole entry): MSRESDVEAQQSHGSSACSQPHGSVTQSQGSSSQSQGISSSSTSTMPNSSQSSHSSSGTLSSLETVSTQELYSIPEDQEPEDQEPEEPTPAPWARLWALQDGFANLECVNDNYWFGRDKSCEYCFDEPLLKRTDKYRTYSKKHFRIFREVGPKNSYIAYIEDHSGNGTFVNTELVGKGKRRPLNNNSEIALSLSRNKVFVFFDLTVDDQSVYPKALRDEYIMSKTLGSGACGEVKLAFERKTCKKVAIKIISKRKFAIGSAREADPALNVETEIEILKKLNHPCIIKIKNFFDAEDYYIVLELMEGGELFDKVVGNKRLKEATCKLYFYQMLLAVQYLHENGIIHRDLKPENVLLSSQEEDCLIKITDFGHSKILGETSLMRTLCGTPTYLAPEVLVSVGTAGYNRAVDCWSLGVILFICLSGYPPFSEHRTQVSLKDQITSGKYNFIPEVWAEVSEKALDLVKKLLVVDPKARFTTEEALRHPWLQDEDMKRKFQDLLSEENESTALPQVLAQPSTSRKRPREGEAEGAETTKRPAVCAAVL

Regarding `Cn1cc(-c2ccc(F)c(-c3cnc(N)c(C(=O)NC4CCC5(CC5)NC4)n3)c2)cn1` (racemic) [Example 40, 3-amino-6-(2-fluoro-5-(1-methyl-1H-pyrazol-4-yl)phenyl)-N-(4-azaspiro[2.5]octan-6-yl) pyrazine-2-carboxamide], the IC50 in test [1] (setting [4]) is above 100000 nM; in test [2], 10 to 100 nM; in test [3], at most 10 nM.
For the compound `Cn1cc(-c2cccc(-c3cnc(N)c(C(=O)NC4CCC5(CC5)NC4)n3)c2)cn1` (racemic) [Example 41, 3-amino-6-(3-(1-methyl-1H-pyrazol-4-yl)phenyl)-N-(4-azaspiro[2.5]octan-6-yl)pyrazine-2-carboxamide], the results for the IC50 in test [1] (setting [4]), in test [2] and in test [3] were above 100000 nM, 10 to 100 nM and at most 10 nM, respectively.
For `CC1(C)Cc2c(-c3cccc(-c4cnc(N)c(C(=O)N[C@H]5CCC6(CC6)NC5)n4)c3)cnn2C1` (stereo in doubt) [Example 65, 3-amino-6-(3-(5,5-dimethyl-5,6-dihydro-4H-pyrrolo[1,2-b]pyrazol-3-yl)phenyl)-N-(4-azaspiro[2.5]octan-6-yl)pyrazine-2-carboxamide], the IC50 was above 100000 nM in test [1] (setting [5]), 10 to 100 nM in test [2] and 10 to 100 nM in test [3].
In the case of `CC1(C)Cc2c(-c3ccc(F)c(-c4cnc(N)c(C(=O)N[C@H]5CCC6(CC6)NC5)n4)c3)cnn2C1` (stereo in doubt) [Example 66, 3-amino-6-(5-(5,5-dimethyl-5,6-dihydro-4H-pyrrolo[1,2-b]pyrazol-3-yl)-2-fluorophenyl)-N-(4-azaspiro[2.5]octan-6-yl)pyrazine-2-carboxamide], the 50% inhibitory concentration (IC50) in test [1] (setting [5]) was at most 10000 nM; in test [2] it was above 1000 nM; in test [3], 10 to 100 nM.
For the compound `Nc1ncc(-c2cc(-c3cnn(CC(F)(F)F)c3)ncc2F)nc1C(=O)N[C@@H]1CNC[C@@H](F)C1` [Example 2, 3-amino-6-(5-fluoro-2-(1-(2,2,2-trifluoroethyl)-1H-pyrazol-4-yl)pyridin-4-yl)-N-((3S,5S)-5-fluoropiperidin-3-yl)pyrazine-2-carboxamide], the IC50 is 10000 to 100000 nM in test [1] (setting [4]), 100 to 1000 nM in test [2] and 10 to 100 nM in test [3].
On to `Nc1ncc(-c2cc(-c3cnn(CC(F)(F)F)c3)ncc2F)nc1C(=O)N[C@@H]1CNCC(F)(F)C1` [Example 4, (S)-3-amino-N-(5,5-difluoropiperidin-3-yl)-6-(5-fluoro-2-(1-(2,2,2-trifluoroethyl)-1H-pyrazol-4-yl)pyridin-4-yl)pyrazine-2-carboxamide], for which the IC50 is 48100 nM in test [1] (setting [6]); 10000 to 100000 nM in test [1] (setting [4]); 3440 nM in test [1] (setting [7]); 670 nM in test [1] (setting [8]); above 1000 nM in test [2]; 10 to 100 nM in test [3].
For `Nc1ncc(-c2ccnc(-c3cnn(CC(F)(F)F)c3)c2)nc1C(=O)N[C@@H]1CNCC[C@H]1O` [Example 14, 3-amino-N-((3R,4R)-4-hydroxypiperidin-3-yl)-6-(2-(1-(2,2,2-trifluoroethyl)-1H-pyrazol-4-yl)pyridin-4-yl)pyrazine-2-carboxamide], the concentration for half-maximal inhibition (IC50) is above 100000 nM in test [1] (setting [4]), 100 to 1000 nM in test [2] and 10 to 100 nM in test [3].
Consider `Nc1ncc(-c2ccnc(-c3cnn(CC(F)(F)F)c3)c2)nc1C(=O)N[C@@H]1CNC[C@@H](F)C1` [Example 15, 3-amino-N-((3S,5S)-5-fluoropiperidin-3-yl)-6-(2-(1-(2,2,2-trifluoroethyl)-1H-pyrazol-4-yl)pyridin-4-yl)pyrazine-2-carboxamide], for which the IC50 was 11800 nM in test [1] (setting [6]); at most 10000 nM in test [1] (setting [4]); 2270 nM in test [1] (setting [7]); 3050 nM in test [1] (setting [8]); 100 to 1000 nM in test [2]; at most 10 nM in test [3].
In test [2], `CC(C)(O)Cn1cc(-c2cc(-c3cnc(N)c(C(=O)N[C@@H]4CNC[C@@H](F)C4)n3)ccn2)cn1` [Example 34, 3-amino-N-((3S,5S)-5-fluoropiperidin-3-yl)-6-(2-(1-(2-hydroxy-2-methylpropyl)-1H-pyrazol-4-yl)pyridin-4-yl)pyrazine-2-carboxamide] came in with an IC50 of 10 to 100 nM.
Turning to `CC1(C)Cc2c(-c3cccc(-c4cnc(N)c(C(=O)N[C@@H]5CNCC[C@H]5O)n4)c3)cnn2C1` [Example 52, 3-amino-6-(3-(5,5-dimethyl-5,6-dihydro-4H-pyrrolo[1,2-b]pyrazol-3-yl)phenyl)-N-((3R,4R)-4-hydroxypiperidine-3-yl)pyrazine-2-carboxamide], the IC50 was 10000 to 100000 nM in test [1] (setting [4]) and 10 to 100 nM in test [3].
Consider `CC1(C)Cc2c(-c3cc(-c4cnc(N)c(C(=O)N[C@@H]5CNCC[C@H]5O)n4)ccn3)cnn2C1` [Example 53, 3-amino-6-(2-(5,5-dimethyl-5,6-dihydro-4H-pyrrolo[1,2-b]pyrazol-3-yl)pyridin-4-yl)-N-((3R,4R)-4-hydroxypiperidin-3-yl)pyrazine-2-carboxamide], for which the figures for the IC50 in test [1] (setting [4]) and in test [3] were above 100000 nM and 10 to 100 nM, respectively.
In the case of `CC1(C)Cc2c(-c3cc(-c4cnc(N)c(C(=O)N[C@@H]5CNC[C@H]5O)n4)ccn3)cnn2C1` [Example 54, 3-amino-6-(2-(5,5-dimethyl-5,6-dihydro-4H-pyrrolo[1,2-b]pyrazol-3-yl)pyridin-4-yl)-N-((3R,4R)-4-hydroxypyrrolidin-3-yl)pyrazine-2-carboxamide], the IC50 is above 100000 nM in test [1] (setting [4]) and at most 10 nM in test [3].
The matching figures for `CC1(C)Cc2c(-c3ccc(O)c(-c4cnc(N)c(C(=O)N[C@@H]5CNC[C@@H](F)C5)n4)c3)cnn2C1` [Example 55, 3-amino-6-(5-(5,5-dimethyl-5,6-dihydro-4H-pyrrolo[1,2-b]pyrazol-3-yl)-2-hydroxyphenyl)-N-((3S,5S)-5-fluoropiperidin-3-yl)pyrazine-2-carboxamide]: 10000 to 100000 nM and at most 10 nM.
With `CC1(C)Cc2c(-c3ccc(O)c(-c4cnc(N)c(C(=O)N[C@H]5CCC6(CC6)NC5)n4)c3)cnn2C1` [Example 56, (S)-3-amino-6-(5-(5,5-dimethyl-5,6-dihydro-4H-pyrrolo[1,2-b]pyrazol-3-yl)-2-hydroxyphenyl)-N-(4-azaspiro[2.5]octan-6-yl)pyrazine-2-carboxamide], the IC50 in test [1] (setting [4]) was 10000 to 100000 nM; in test [3], at most 10 nM.
In the case of `CC1(C)Cc2c(-c3ccc(O)c(-c4cnc(N)c(C(=O)N[C@@H]5CNC[C@H]5O)n4)c3)cnn2C1` [Example 57, 3-amino-6-(5-(5,5-dimethyl-5,6-dihydro-4H-pyrrolo[1,2-b]pyrazol-3-yl)-2-hydroxyphenyl)-N-((3R,4R)-4-hydroxypyrrolidin-3-yl)pyrazine-2-carboxamide], the figures for the IC50 in test [1] (setting [4]) and in test [3] were above 100000 nM and 10 to 100 nM, respectively.
On the same counts, the results for `CC1(C)Cc2c(-c3cccc(-c4cnc(N)c(C(=O)N[C@@H]5CNCCC5(F)F)n4)c3)cnn2C1` [Example 58, 3-amino-N-(4,4-difluoropiperidin-3-y)-6-(3-(5,5-dimethyl-5,6-dihydro-4H-pyrrolo[1,2-b]pyrazol-3-yl)phenyl)pyrazine-2-carboxamide] are 10000 to 100000 nM and at most 10 nM.
On the same counts, the results for `CC1(C)Cc2c(-c3cccc(-c4cnc(N)c(C(=O)N[C@@H]5CNC[C@H]5O)n4)c3)cnn2C1` [Example 60, 3-amino-6-(3-(5,5-dimethyl-5,6-dihydro-4H-pyrrolo[1,2-b]pyrazol-3-yl)phenyl)-N-((3R,4R)-4-hydroxypyrrolidin-3-yl)pyrazine-2-carboxamide] are above 100000 nM and at most 10 nM.
With `CC1(C)Cc2c(-c3cccc(-c4cnc(N)c(C(=O)N[C@H]5CNC[C@@H]5F)n4)c3)cnn2C1` [Example 62, 3-amino-6-(3-(5,5-dimethyl-5,6-dihydro-4H-pyrrolo[1,2-b]pyrazol-3-yl)phenyl)-N-((3S,4S)-4-fluoropyrrolidin-3-yl) pyrazine-2-carboxamide], the IC50 in test [1] (setting [4]) lay in the range of 10000 to 100000 nM; in test [3] it was 10 to 100 nM.
As to `CC1(C)Cc2c(-c3nccc(-c4cnc(N)c(C(=O)N[C@H]5CCC6(CC6)NC5)n4)n3)cnn2C1` [Example 63, (S)-3-amino-6-(2-(5,5-dimethyl-5,6-dihydro-4H-pyrrolo[1,2-b]pyrazol-3-yl)pyrimidin-4-yl)-N-(4-azaspiro[2.5]octan-6-yl) pyrazine-2-carboxamide], the IC50 in test [1] (setting [4]) is 10000 to 100000 nM; in test [3] it was at most 10 nM.
